{"source": "patent US5461057A", "about": "“Hydro-ethano-indeno-pyridines” (priority 1994, dated 1995)", "key": {"[1]": {"system": "LOX human melanoma cell adhesion to human fibrinogen", "assay": "LOX cell adhesion to fibrinogen", "type": "cell-based", "details": "read-out: Fibrinogen IC50", "procedure": "(§1) Adhesion assays were run essentially as described previously (Pai et al., J. Biomed. Res. 2: 53, 1992). 96-well plates were coated with human fibronectin (140 ng/well), human vitronectin (75 ng/well), human collagen I (100 ng/well), human collagen IV (100 ng/well), human fibrinogen (1 μg/well), murine laminin (600 ng/well), or polylysine, and incubated overnight in a humidified 37° C. incubator. Excess fibronectin or other substrate was then removed and 0.2 ml of 2 mg/ml bovine serum albumin (BSA)in Dulbecco's phosphate-buffered saline (DPBS) was added to each well, incubated for 2 hours at 37° C., and removed. LOX human melanoma cells, M27 murine lung carcinoma cells or B16F10 mouse melanoma cells were detached from tissue culture flasks with RPMI medium containing 0.2M urea and 10 mM EDTA, and 0.18 ml of cells were added to each well to a final cell concentration of 1×10^5 cells/well. For inhibition studies 20 μl of 10× compound was added to the wells prior to cell addition. Cells were allowed to adhere for 1 hour at 37° C. The wells were then gently washed twice with 0.2 ml DPBS. The fluorescent dye calcein AM (Molecular Probes, Eugene Oreg.) in DPBS (0.1 ml of 1 μM) was added to each well, and the plates were incubated for 1 hour at room temperature. Adherent cells were quantitated by reading the fluorescence on a Cytofluor 2300 fluorescent plate reader (Millipore) at 485 nm excitation and 530 nm emission."}, "[2]": {"system": "LOX human melanoma cell adhesion to murine laminin", "assay": "LOX cell adhesion to laminin", "type": "cell-based", "details": "read-out: Laminin IC50", "procedure": "as §1"}, "[3]": {"system": "LOX human melanoma cell adhesion to human collagen I", "assay": "LOX cell adhesion to collagen I", "type": "cell-based", "details": "read-out: Collagen I IC50", "procedure": "as §1"}, "[4]": {"system": "LOX human melanoma cell adhesion to human fibronectin", "assay": "LOX melanoma cell adhesion to fibronectin", "type": "cell-based", "details": "Homo sapiens, LOX; for inhibition at 10 µM: read-out: % Inhibition at 10 μM; for inhibition at 50 µM: read-out: % Inhibition at 50 μM", "outline": "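Compound added to fibronectin-coated (140 ng/well), BSA-blocked wells before LOX cells (1×10^5/well, detached with urea/EDTA). Cells adhered 1 h at 37 °C, then washed. Adherent cells quantified by calcein AM fluorescence (485/530 nm); IC50 for adhesion inhibition.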"}, "[5]": {"system": "LOX human melanoma cell adhesion to human vitronectin", "assay": "LOX cell adhesion to vitronectin", "type": "cell-based", "details": "read-out: Vitronectin IC50", "procedure": "as §1"}, "[6]": {"system": "LOX human melanoma cell adhesion to human collagen IV", "assay": "LOX cell adhesion to collagen IV", "type": "cell-based", "details": "read-out: Collagen IV IC50", "procedure": "as §1"}, "[7]": {"system": "LOX human melanoma cell adhesion to polylysine", "assay": "LOX melanoma cell adhesion to polylysine", "type": "cell-based", "details": "read-out: Poly Lys IC50"}, "[8]": {"assay": "Calcein cytotoxicity assay", "type": "cell-based", "details": "human, lox melanoma cells, calcein AM assay; for CC50 at 2 h: read-out: 2 Hr Tox LD50"}, "[9]": {"system": "histamine-induced dyspnea", "assay": "Bronchodilator (in vivo) Guinea Pig Dyspnea", "details": "100 mg/kg, oral, one hour before histamine challenge", "outline": "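Fasted, unanesthetized guinea pigs (250-350 g) received the test drug orally one hour before exposure to an aerosolized 0.1% histamine solution. Onset of dyspnea was recorded, and data were expressed as number tested over number survived.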"}, "LOX human melanoma cells": {"system": "LOX human melanoma cells", "assay": "Tumor cell invasion through collagen/fibronectin coated membranes", "type": "cell-based", "procedure": "[…] Cell Invasion Through Collagen/Fibronectin Coated Membranes:\nNucleopore polycarbonate membranes (8 μm pore size) were coated with 0.05 ml of type I collagen and allowed to dry overnight. 210 μl of serum free DMEM with BSA was added to each Boyden chamber. Membranes were placed in chambers and upper chambers were screwed on. Human fibronectin (50 μl of 0.1 mg/ml solution in DMEM with BSA) was added to the top chamber and allowed to sit on membranes for 1 hour at room temperature. Compounds (50 μl) at 10× concentration in DMEM with BSA were added to the chambers. LOX melanoma cells were detached from flasks with trypsin/EDTA solution and resuspended in RPMI with 10% fetal bovine serum. Cells were centrifuged, washed 2× with DMEM with BSA, and resuspended in 10 ml of DMEM with BSA. LOX cells (0.45 ml of 7.8×10^5 cells per ml) were added to each chamber and chambers were incubated for 5 hours at 37° C. The medium was removed from the upper chamber by aspiration, the top chamber was unscrewed, and the membrane was removed. The membrane was inverted, pinned to a dissecting tray, and fixed with Diff Quik fixative for 3 minutes The fixative was then removed and Diff Quik Stain was added for 2 minutes. The stain was decanted and membranes were rinsed with distilled water. Membranes were inverted onto glass slides, and non-invading cells were wiped away with a cotton swab. Permount was added to the slide and the membrane was covered with a cover slip. The number of cells that invaded was quantitated on a Nikon TMS microscope with C-2 Image Analyzer software (Olympus Corp.).\nThe greater potency of the compounds in this assay (IC50 for compound B<400 nM) may result from the longer duration of this assay (5 hours) relative to the fibronectin adhesion assay (1 hour)."}, "ICAM-1": {"target": "T1, ICAM-1 (Homo sapiens, UniProt P05362)", "T1 construct": "recombinant soluble ICAM-1 (2 μg/well)", "T1 sequence (P05362 28-480 limits assumed)": "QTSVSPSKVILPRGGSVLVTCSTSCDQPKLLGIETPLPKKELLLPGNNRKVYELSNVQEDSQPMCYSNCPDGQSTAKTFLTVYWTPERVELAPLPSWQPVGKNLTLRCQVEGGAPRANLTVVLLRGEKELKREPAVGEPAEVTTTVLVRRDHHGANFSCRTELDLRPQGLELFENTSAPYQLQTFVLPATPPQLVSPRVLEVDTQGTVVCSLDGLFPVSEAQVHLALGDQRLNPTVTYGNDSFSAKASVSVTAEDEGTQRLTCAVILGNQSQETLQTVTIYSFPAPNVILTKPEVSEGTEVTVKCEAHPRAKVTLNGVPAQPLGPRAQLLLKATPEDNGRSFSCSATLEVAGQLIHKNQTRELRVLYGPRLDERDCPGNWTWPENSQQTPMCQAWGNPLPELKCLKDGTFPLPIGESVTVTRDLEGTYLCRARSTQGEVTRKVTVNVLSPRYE", "assay": "HL-60 cell adhesion to recombinant soluble ICAM-1", "type": "cell-based", "details": "HL-60 cells", "procedure": "For measurement of cell adhesion to ICAM-1, HL-60 human leukemia cells were induced to differentiate in the presence of DMSO for 6 days. Adhesion of DMSO-differentiated HL-60 cells to recombinant soluble ICAM-1 (2 μg/well) was measured as described above for LOX cell adhesion, except that the adhesion was allowed to proceed for 30 minutes, rather than 1 hour, at 37° C.\nICAM-1 is a cell surface adhesion molecule that participates in cell-cell adhesion interactions, rather than cell-matrix adhesion interactions."}, "MTT cytotoxicity assay": {"assay": "MTT cytotoxicity assay", "type": "cell-based", "details": "human, lox melanoma cells, read-out: MTT 1 Hr LD50", "procedure": "LOX human melanoma cells, in RPMI medium with 2 mg/ml BSA and 25 mM HEPES, pH 7.4, were seeded at 4×10^4 cells/well in 96-well microtiter plates and grown overnight in a humidified 37° C. incubator. On the following day, the medium was aspirated and wells were washed once with 0.1 ml of DPBS. Compounds (0.1 ml) in DPBS were added to wells in quadruplicate at appropriate concentrations. The cells were then incubated with test compound for 1 hour at 37° C. Wells were aspirated and washed 2× with 0.1 ml DPBS. MTT [3-(4,5-Dimethylthiazol-2-yl)-2,5-diphenyltetrazolium bromide] (0.1 ml of 1 mg/ml solution in PBS from Sigma Chemical Co.) was added to each well and incubated for 2 hour at 37° C. MTT was aspirated and 0.1 ml of 50% N,N-dimethylformamide with 20% sodium dodecyl sulfate was added to each well. Plates were shaken for 10 minutes on a Titer-Plate shaker (Labline) at room temperature. Optical density was read at 570 nm with a plate-reading spectrophotometer (Dynatech MR5000)."}, "[10]": {"system": "B16-F10 mouse melanoma cell adhesion to fibronectin", "assay": "B16-F10 melanoma cell adhesion to fibronectin", "type": "cell-based", "details": "read-out: B16 FN IC50", "procedure": "as §1"}, "ELAM-1": {"target": "ELAM-1 (Homo sapiens, UniProt P16581)", "sequence (P16581 22-610)": "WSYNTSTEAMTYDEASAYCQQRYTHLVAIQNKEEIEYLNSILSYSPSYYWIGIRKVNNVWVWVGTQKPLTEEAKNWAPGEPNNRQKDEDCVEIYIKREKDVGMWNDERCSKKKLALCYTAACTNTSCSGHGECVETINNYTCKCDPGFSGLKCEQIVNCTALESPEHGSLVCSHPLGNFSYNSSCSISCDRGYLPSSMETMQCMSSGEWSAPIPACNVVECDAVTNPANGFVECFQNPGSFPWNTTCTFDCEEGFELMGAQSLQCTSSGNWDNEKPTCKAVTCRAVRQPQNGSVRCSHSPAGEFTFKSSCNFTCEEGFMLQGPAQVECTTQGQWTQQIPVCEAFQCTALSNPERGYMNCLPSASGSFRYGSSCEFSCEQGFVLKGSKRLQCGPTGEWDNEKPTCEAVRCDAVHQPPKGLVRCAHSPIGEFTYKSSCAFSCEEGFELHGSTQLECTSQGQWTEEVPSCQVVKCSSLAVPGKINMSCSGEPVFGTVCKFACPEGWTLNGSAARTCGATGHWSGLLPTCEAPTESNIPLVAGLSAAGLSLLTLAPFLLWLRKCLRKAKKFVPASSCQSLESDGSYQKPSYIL", "assay": "cell-based", "procedure": "Cell adhesion to ELAM-1 was measured essentially as described previously (Pal et al., J. Biomed. Res. 2: 53, 1992). Undifferentiated HL-60 leukemia cells were prelabelled for 30 minutes with 1 μM calcein AM in DPBS without calcium or magnesium, and the cells were washed twice with the same medium before addition to 96-well plates containing monolayers of mouse L cells (5×10^4 cells/well) transfected with cDNA for the adhesion molecule ELAM-1. Adhesion was allowed to proceed for 30 minutes at room temperature before washing and quantitation of the remaining fluorescent HL-60 cells as described above.\nELAM-1 (E-selectin) is a member of the selectin class of adhesion molecules."}, "[11]": {"system": "M27 murine lung carcinoma cell adhesion to fibronectin", "assay": "M27 lung carcinoma cell adhesion to fibronectin", "type": "cell-based", "details": "Mus musculus; read-out: M27 FN IC50", "procedure": "as §1"}}, "note": "Read-outs that look alike come from different tables or passages of the source.", "data": [{"molecule": "CN1C2CCC1C1C(=C(c3ccccc3C(F)(F)F)c3ccccc31)C2", "note": "(centres unmarked) [Compound S]", "values": [{"measurement": "IC50", "setting": "[1]", "result": 15.7, "unit": "µM"}, {"measurement": "IC50", "setting": "[2]", "result": 7.7, "unit": "µM"}, {"measurement": "IC50", "setting": "[3]", "result": 11.6, "unit": "µM"}, {"measurement": "inhibition at 10 µM", "setting": "[4]; 10 μM", "result": -4.4, "unit": "%"}, {"measurement": "inhibition at 50 µM", "setting": "[4]; 50 μM", "result": 90.2, "unit": "%"}, {"measurement": "IC50", "setting": "[4]; Table 4, 1 hour adhesion, read-out: LOX FN IC50", "result": 17.7, "unit": "µM"}, {"measurement": "IC50", "setting": "[4]; Table 5, read-out: Fibronectin IC50", "result": 17.7, "unit": "µM"}, {"measurement": "IC50", "setting": "[5]", "result": 20.2, "unit": "µM"}, {"measurement": "IC50", "setting": "[6]", "result": 19.2, "unit": "µM"}, {"measurement": "IC50", "setting": "[7]", "result": "> 250", "unit": "µM"}, {"measurement": "CC50 at 2 h", "setting": "[8]", "result": "> 250", "unit": "µM"}, {"measurement": "DYSP survivors", "setting": "[9]", "result": "0/3"}]}, {"molecule": "CSc1ccc(C2=C3CC4CCC(C3c3ccccc32)N4C)cc1", "note": "(centres unmarked) [F, 1SR:3RS:9b-1,3 Ethano-2-methy-5-(p-methylmercaptophenyl)-1,3,4,9b-tetrahydro-2H-indeno-(2h-indeno) [1,2-c]pyridine]", "values": [{"measurement": "IC50", "setting": "LOX human melanoma cells; Homo sapiens, 5 hours, read-out: Invasion IC50", "result": 0.52, "unit": "µM"}, {"measurement": "inhibition of in vitro tumor cell invasion", "setting": "LOX human melanoma cells; fibronectin/collagen matrix", "result": "inhibit in vitro tumor cell invasion through a fibronectin/collagen matrix"}, {"measurement": "IC50", "setting": "ICAM-1", "result": 16.8, "unit": "µM"}, {"measurement": "CC50 at 1 h", "setting": "MTT cytotoxicity assay", "result": 51.7, "unit": "µM"}, {"measurement": "IC50", "setting": "[10]", "result": 24.2, "unit": "µM"}, {"measurement": "IC50", "setting": "ELAM-1", "result": "> 50", "unit": "µM"}, {"measurement": "IC50", "setting": "[4]; 1 h, read-out: LOX FN IC50", "result": 5.1, "unit": "µM"}, {"measurement": "inhibition at 10 µM", "setting": "[4]", "result": 49.4, "unit": "%"}, {"measurement": "inhibition at 50 µM", "setting": "[4]", "result": 102, "unit": "%"}, {"measurement": "IC50", "setting": "[7]", "result": 24.4, "unit": "µM"}, {"measurement": "CC50 at 2 h", "setting": "[8]", "result": 43.3, "unit": "µM"}, {"measurement": "CC50 at 6 h", "setting": "[8]; 6 hours, read-out: 6 Hr Tox LD50", "result": 19.9, "unit": "µM"}, {"measurement": "responders at 100 mg/kg", "setting": "[9]; Cavia porcellus, 1 h, read-out: DYSP survivors (converted)", "result": 0, "unit": "%"}, {"measurement": "IC50", "setting": "[11]", "result": 8.7, "unit": "µM"}]}]}
